Experimental findings from US20210275624A1, “TREATMENTS FOR IMPROVING OR LESSENING IMPAIRMENT OF MITOCHONDRIAL FUNCTION” (priority 2020, published 2021) are described below.

Square brackets hold non-standard residues; d marks the D form. Peptide text beside a SMILES is read from it. Cya = N[C@@H](CS(=O)(=O)O)C(=O)O

Data set [1] concerns human RPE cells. As to the kind of experiment: WST assay (mitochondrial dehydrogenase activity / cell viability). In kind it is cell-based. The settings on record: 2.5 hours. As to the method:
Human donor RPE cells were seeded on collagen-coated 96-well plates, 24-well plates with or without coverslips, 6-well plates (Corning-Costar Incorporated, Corning, N.Y., USA). Except for the Seahorse assay, on day 6 after plating, cells were washed twice with serum-free and phenol red-free MEM (SF-MEM), treated with HQ at a various concentrations in the presence or absence of RSG (0.4 mM) in SF-MEM for various times at 37° C. RSG co-treatment refers to the condition in which cells were treated with RSG in the presence of HQ. Control refers to the condition in which cells were not treated. RPE cells in triplicate wells of a 96-well plate were treated with HQ (150 μM) for 2.5 hours in the presence or absence of RSG (0.4 mM). The medium was removed and cells were incubated with WST-1 solution for 30 minutes at 37° C. A colorimetric assay was performed based on the cleavage of the tetrazolium salt WST-1 by mitochondrial dehydrogenases in viable cells. The plate was read on a spectrophotometer at 440 nm with a reference wavelength at 690 nm.

Data set [2] has as its system human RPE cells. Nature of the data set: Determination of Δψm (JC-1 dye). In kind it is cell-based. As to the method:
Human donor RPE cells were seeded on collagen-coated 96-well plates, 24-well plates with or without coverslips, 6-well plates (Corning-Costar Incorporated, Corning, N.Y., USA). Except for the Seahorse assay, on day 6 after plating, cells were washed twice with serum-free and phenol red-free MEM (SF-MEM), treated with HQ at a various concentrations in the presence or absence of RSG (0.4 mM) in SF-MEM for various times at 37° C. RSG co-treatment refers to the condition in which cells were treated with RSG in the presence of HQ. Control refers to the condition in which cells were not treated. RPE cells in triplicate wells of 96-well black plates with clear bottoms were washed with SF-MEM, loaded with 10 μM JC-1 dye in SF-MEM for 30 minutes at 37° C. and then washed twice. Cells were then treated with HQ (160 μM) with or without RSG (0.4 mM). A fluorescence plate reader was used to measure the fluorescence at various times to quantify green JC-1 monomer (490-nm excitation, 522-nm emission) and red JC-1 aggregates (535-nm excitation, 590-nm emission).

In data set [3] the test system is human RPE cells. As to the kind of experiment: RNA-seq whole transcriptome analysis. Type of data set: cell-based. As to conditions: 4 hours. As to the method:
RPE cells in sextuplicate wells of a 6-well plate were treated for 4 hours with HQ (250 μM or 300 μM) in the presence or absence of RSG (0.4 mM). Total RNA was extracted using an RNeasy Mini Kit and DNA was removed with TURBO DNA-free kit. RNA quality was measured with a Bioanalyzer (Agilent Genomics, Santa Clara, Calif., USA). RNA-seq libraries were prepared from poly-A enriched messenger RNA and sequenced by GENEWIZ (South […], NJ, USA) to generate approximately 20-30 million paired-end, 150 base-pair reads per sample. RNA-seq FASTQ files were quality-tested with FastQC. Reads were aligned with STAR to human genome (GRCh38.p12) and transcriptome ([…]30) references, followed by read-quantification with featureCounts. Principal component analysis (PCA) was used to visualize the high-dimensional RNA-seq dataset using the top 15 thousand genes that had the highest average counts, as normalized by DESeq2's VST method. […] Enriched biological processes were condensed and visualized with […] with similarity metric set to small and GO term size determined by Uniport Homo Sapiens database; biologically relevant processes were selected and labeled. Six enriched KEGG pathways were selected for visualization of gene expression changes, based on their biological relevance and strength of negative correlation between HQ and RSG co-treatment. Empirical RNA-seq Sample Size Analysis (ERSSA) was used to check whether the six biological replicates used in this study were sufficient for differential expression discovery; analysis was performed with log 2FC cutoff of 0.25 and 50 subsamples at each replicate level.

The next data set concerns HMOX-1. As to the kind of experiment: Real-time RT-PCR (qPCR) of HMOX-1. Type of data set: cell-based, human. The settings on record: 4 hours. As to the method:
RPE cells in triplicate wells of a 12-well plate were treated with HQ (250 μM) in the presence or absence of RSG (0.4 mM) for 4 hours. Total RNA was isolated using RNeasy Plus Mini Kit according to the manufacturer's specifications and real-time quantitative reverse transcription-polymerase chain reaction (qPCR) was performed as we have described previously. Primer pairs for HMOX-1 and ribosomal protein, large, PO (RPLPO) were as follows (5′ to 3′): HMOX-1, forward: CAG GAG CTG ACC CAT GA; reverse: AGCAACTGTCGCCACCAGAA; RPLPO, forward: GGACATGTTGCTGGCCAATAA; reverse: GGG CCC GAG ACC AGT GTT.
For orientation: Real-time PCR tracks product formation cycle by cycle.

The test system of a further data set is heme oxygenase-1 (HO-1). Nature of the data set: Western blot of HO-1. In kind it is cell-based, human. As to conditions: for HO-1 protein level (Western blot): 8 hours. As to the method: RPE cells in triplicate wells of a 6-well plate were treated with HQ (170 μM) in the presence or absence of RSG (0.4 mM) for 8 hours. Total protein were extracted with RIPA buffer supplemented with protease inhibitors and phosphatase inhibitors, quantified with Bradford protein assay, and subjected to SDS-PAGE and Western blot as we have previously described.^21
(Immunoblotting shows a protein as a band on a membrane.)

On to `Oc1ccc(O)cc1` [HQ, hydroquinone, reference compound], for which the “cell viability (WST-1)” value with human RPE cells [1] (HQ 150 μM) is given as “significantly decreased cell viability”. Further, the Δψm entry in the data set on human RPE cells [2] (HQ 160 μM vs control) is recorded as “significantly decreased”. The “number of genes changed (differential expression)” value with human RPE cells [3] (HQ 250 μM or 300 μM, vs control) is “approximately seven thousand”. For the same compound, the “HMOX-1 gene expression increase (RNA-seq)” value in the data set with human RPE cells [3] (HQ 250 μM) amounted to 618%; in the data set on human RPE cells [3] (HQ 300 μM) it was 420%. In addition, in the data set with HMOX-1 (HQ 250 μM), the “HMOX-1 gene level (qPCR)” value was “significantly up-regulated”. Moreover, the “HO-1 protein level (Western blot)” value in the data set on heme oxygenase-1 (HO-1) (HQ 170 μM) is recorded as “significantly up-regulated”.
With `C[C@@H](O)[C@H](NC(=O)[C@H](CS(=O)(=O)O)NC(=O)CNC(=O)[C@H](CCCNC(=N)N)NC(=O)CN)C(=O)N1CCC[C@H]1C(=O)O` [Risuteganib, Glycyl-L-arginylglycyl-3-sulfo-L-alanyl-L-threonyl-L-proline] (H-GRG[Cya]TP-OH), the “cell viability (WST-1, mitochondrial dehydrogenase activity)” value in the data set with human RPE cells [1] (RSG 0.4 mM co-treatment with HQ 150 μM, vs HQ alone) was “significantly increased cell viability”. Also, the “Δψm (mitochondrial membrane potential)” value with human RPE cells [2] (RSG 0.4 mM co-treatment with HQ 160 μM) is reported as “significantly improved HQ-mediated reduction in Δψm”. The “HMOX-1 gene expression increase (RNA-seq)” value in the data set on human RPE cells [3] (RSG 0.4 mM co-treatment vs 250 μM HQ alone) worked out at 241%; in the data set on human RPE cells [3] (RSG 0.4 mM co-treatment vs 300 μM HQ alone), 391%. In addition, the “genes regulated (differential expression)” value in the data set on human RPE cells [3] (RSG 0.4 mM co-treatment vs HQ alone) is given as “regulated thousands of genes”. The “number of differentially expressed (DE) genes” value with human RPE cells [3] (RSG alone 0.4 mM, vs control) amounted to 15 genes. For the same compound, the “HMOX-1 gene level (qPCR)” value in the data set on HMOX-1 (RSG 0.4 mM co-treatment with HQ 250 μM) is reported as “further up-regulated”. For the same compound, the “HO-1 protein level (Western blot)” value in the data set with heme oxygenase-1 (HO-1) (RSG 0.4 mM co-treatment with HQ 170 μM) is listed as “further up-regulated”. Also, the “cellular stress and HO-1 activation” value in the data set with heme oxygenase-1 (HO-1) (RSG alone) is “did not induce observable cellular stress and HO-1 activation”.
